The source made the active and inactive calls.
Target: T1, Heat shock factor protein 1 (Mus musculus, UniProt P38532)
T1 sequence (P38532 whole entry): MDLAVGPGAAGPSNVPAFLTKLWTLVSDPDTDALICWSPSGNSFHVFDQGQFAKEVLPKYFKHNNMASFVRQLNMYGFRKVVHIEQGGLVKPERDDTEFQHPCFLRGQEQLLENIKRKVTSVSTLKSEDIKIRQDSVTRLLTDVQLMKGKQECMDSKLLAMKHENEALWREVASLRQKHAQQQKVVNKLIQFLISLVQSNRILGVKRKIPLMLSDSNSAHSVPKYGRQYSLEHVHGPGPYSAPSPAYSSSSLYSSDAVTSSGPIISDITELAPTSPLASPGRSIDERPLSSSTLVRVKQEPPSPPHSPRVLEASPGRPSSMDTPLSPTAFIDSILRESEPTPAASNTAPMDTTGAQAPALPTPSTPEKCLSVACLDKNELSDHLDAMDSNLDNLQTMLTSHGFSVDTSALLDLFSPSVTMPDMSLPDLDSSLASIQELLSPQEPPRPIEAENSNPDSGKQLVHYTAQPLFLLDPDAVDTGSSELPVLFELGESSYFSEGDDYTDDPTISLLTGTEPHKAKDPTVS
Experiment: HSF1 potentiators in luciferase reporter cells, confirmation, cell-based, NIH3T3, luminescence, dose retest (AID 435004);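 also: stress induced by proteasome inhibitor MG132 added 30 min after compound; luciferase reporter driven by HSF1 response element in NIH3T3 cells; actives raise luminescence as potentiators of the MG132 stress response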
Assay type: functional
Conditions: not given

SMILES | EC50
CC1CCCCN1C(=O)COc1ccccc1F (stereo not given) | > 260 µM (inactive)
Nc1nnc(SCC(=O)Nc2cccc3ccccc23)s1 | > 260 µM (inactive)
CN=C(S)N(Cc1ccc(Cl)cc1)Cc1cccs1 | > 260 µM (inactive)
Cc1cc(C)c(S(=O)(=O)Nc2cccc(/C=C/C(=O)O)c2)c(C)c1 | > 260 µM (inactive)
COc1cccc(/C=C2\N=C(SC)SC2=O)c1OC | 241 µM (active)
Cc1ccc(NNC(=O)c2ccno2)c(C)c1 | > 260 µM (inactive)
COC(CNC(=O)C1CCCN(S(=O)(=O)c2c(C)noc2/C=C/c2cccs2)C1)OC (stereo not given) | 110 µM (active)
N#C/C(=C\c1ccc(Cl)cc1)c1nc2ccccc2o1 | > 260 µM (inactive)
COc1ccc(OCc2nnnn2-c2ccccc2)cc1 | > 260 µM (inactive)
NC1=NC(=O)/C(=C/c2cn(Cc3ccccc3)c3ccccc23)S1 | > 260 µM (inactive)
O=C(CC1S/C(=N\CCc2ccccc2)N(/N=C/c2cccs2)C1=O)Nc1ccc(Cl)cc1 (stereo not given) | > 260 µM (inactive)
CCOC(=O)NC(=O)/C(C#N)=N/Nc1c(F)cccc1F | > 260 µM (inactive)

Target: T2, Streptokinase A (Streptococcus pyogenes serotype M1, UniProt P10520)
T2 sequence (P10520 whole entry): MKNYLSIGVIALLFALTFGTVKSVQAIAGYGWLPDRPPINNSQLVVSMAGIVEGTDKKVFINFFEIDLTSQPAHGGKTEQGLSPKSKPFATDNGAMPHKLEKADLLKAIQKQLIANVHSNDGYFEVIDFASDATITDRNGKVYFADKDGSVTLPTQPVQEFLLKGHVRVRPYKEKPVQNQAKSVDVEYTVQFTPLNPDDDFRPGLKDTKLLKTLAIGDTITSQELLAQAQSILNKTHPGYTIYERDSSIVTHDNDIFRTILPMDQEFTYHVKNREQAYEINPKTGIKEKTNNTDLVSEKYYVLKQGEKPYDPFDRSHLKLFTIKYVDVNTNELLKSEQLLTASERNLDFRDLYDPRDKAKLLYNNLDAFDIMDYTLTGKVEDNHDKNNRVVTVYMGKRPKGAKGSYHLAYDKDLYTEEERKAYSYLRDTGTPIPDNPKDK
Experiment: S. pyogenes streptokinase expression inhibitors, potency, dose response, plasminogen activation absorbance, OD405 (AID 1914);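 also: secreted streptokinase activity via plasminogen activation per viability signal from cell pellet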
Assay type: functional, Streptococcus pyogenes M1 GAS
Conditions: not given

SMILES | EC50
CC(C)(C)OC(=O)[C@H](Cc1ccccc1)NC(=O)c1[nH]cnc1C(=O)Nc1cccc(Cl)c1 | 38.3 µM (active)

Tested on: Streptococcus sp. 'group A'
Experiment: growth inhibition of control SK(-) GAS strain, dose response, counter-screen for streptokinase expression inhibitor project, luminescence, kanamycin, BacTiterGlo, confirmation (AID 1900)
Assay type: functional, organism-based
Conditions: not given

SMILES | EC50
CC(C)(C)OC(=O)[C@H](Cc1ccccc1)NC(=O)c1[nH]cnc1C(=O)Nc1cccc(Cl)c1 | 3.64 µM (active)

Tested on: not listed separately
Experiment: inhibitors of intracellular T. cruzi replication, confirmation, NIH3T3 host cells, beta-gal luminescence (AID 2044);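 also: intracellular parasites grown in NIH/3T3 mouse fibroblasts as host cells; luminescent beta-galactosidase reporter signal from transgenic T. cruzi replicating inside host cells; inhibitors lower the luminescence signal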
Assay type: functional, cell-based
Conditions: not given

SMILES | EC50
CCOC(=O)C1CCN(c2ncnc3c2c(-c2ccccc2)cn3-c2ccccc2)CC1 | 2.23 µM (active)

Tested on: not listed separately
Experiment: Luminescence Cell-Based Dose Response HTS to Identify Inhibitors of 5'UTR Stem-Loop Driven Prion Protein mRNA Translation in H4 Neuroglioblastoma Cells. [Related pubchem assays: 1827 (Project Summary), 1813 (Primary HTS)]
Assay type: functional
Conditions: not given

SMILES | EC50
Cc1ccc(OCC(=O)N/N=C/c2cn(Cc3ccccc3)c3ccccc23)cc1 | 13.1 µM (active)

Target: Cytochrome P450 2D6 (Homo sapiens, UniProt P10635);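 also: CYP2D6 member of a cytochrome P450 panel assay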
Sequence (P10635 whole entry): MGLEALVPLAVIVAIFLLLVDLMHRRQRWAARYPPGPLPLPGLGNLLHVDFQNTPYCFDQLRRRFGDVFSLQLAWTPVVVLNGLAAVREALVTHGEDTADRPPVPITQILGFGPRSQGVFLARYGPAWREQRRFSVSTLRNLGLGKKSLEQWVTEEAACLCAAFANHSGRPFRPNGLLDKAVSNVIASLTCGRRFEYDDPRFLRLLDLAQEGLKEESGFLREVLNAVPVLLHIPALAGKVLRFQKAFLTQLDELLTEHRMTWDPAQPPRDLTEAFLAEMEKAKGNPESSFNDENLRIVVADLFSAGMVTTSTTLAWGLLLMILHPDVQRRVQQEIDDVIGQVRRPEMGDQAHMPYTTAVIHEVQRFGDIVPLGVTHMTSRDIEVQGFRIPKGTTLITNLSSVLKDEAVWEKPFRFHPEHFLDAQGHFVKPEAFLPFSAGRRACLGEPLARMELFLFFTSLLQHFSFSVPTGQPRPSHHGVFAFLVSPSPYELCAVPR
Experiment: not given
Conditions: not given

SMILES | AC50
O=C(Nc1cccc(NC(=O)c2ccccc2[N+](=O)[O-])n1)c1ccccc1[N+](=O)[O-] | 20 µM (inconclusive)
O=C(c1csnn1)N1CCC2(CC1)CN(c1ccccc1)C2 | 15.8 µM (inconclusive)
Cc1ccccc1-c1nc(N2CCNCC2)c2ccccc2n1 | 20 µM (inconclusive)
CN(C)c1ncc2nc(-c3ccc(F)cc3)c(=O)n(C[C@H]3CCCO3)c2n1 | 1.26 µM (inconclusive)
COc1cccc(Cn2c(=O)c(CCc3ccccc3)nc3cnc(N4CCN(C)CC4)nc32)c1 | 20 µM (inconclusive)
CCOC(=O)c1ccc(Nc2nc(-c3cccnc3)nc3ccccc23)cc1 | 10 µM (inconclusive)
CN(C)C(=O)c1ccc(-c2nccc(N(C)Cc3ccco3)n2)cc1 | 25.1 µM (inconclusive)
Cc1ccccc1CSc1nnc(-c2cccs2)n1Cc1ccco1 | 1.12 µM (inconclusive)
C=CC[C@@H]1C=C[C@H](O/N=C(\C)CCN2CCCc3nc(C)c(C)cc32)[C@H](CO)O1 | 3.16 µM (inconclusive)
COc1ccc(CCN2/C(=N/C(=O)CCC(=O)O)SC3CS(=O)(=O)CC32)cc1 (stereo not given) | 39.8 µM (inconclusive)

Tested on: not listed separately
Experiment: cytotoxicity toward NIH3T3 fibroblasts, dose response, counter-screen, cell-based, ATP luminescence, mouse fibroblasts (AID 2010);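 also: cells exposed to compound for about 90 hours before reading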
Assay type: functional
Conditions: not given

SMILES | EC50
CCOC(=O)C1CCN(c2ncnc3c2c(-c2ccccc2)cn3-c2ccccc2)CC1 | > 60 µM (not active)

Tested on: not listed separately
Experiment: inhibitors of firefly luciferase expression or activity, dose response, H4 neuroglioma cells, luminescence (AID 1990)
Assay type: functional, cell-based
Conditions: not given

SMILES | EC50
Cc1ccc(OCC(=O)N/N=C/c2cn(Cc3ccccc3)c3ccccc23)cc1 | 9.88 µM (active)

Target: T3, Cytochrome P450 1A2 (Homo sapiens, UniProt P05177);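 also: PubChem cytochrome P450 panel assay, CYP1A2 panel member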
T3 sequence (P05177 whole entry): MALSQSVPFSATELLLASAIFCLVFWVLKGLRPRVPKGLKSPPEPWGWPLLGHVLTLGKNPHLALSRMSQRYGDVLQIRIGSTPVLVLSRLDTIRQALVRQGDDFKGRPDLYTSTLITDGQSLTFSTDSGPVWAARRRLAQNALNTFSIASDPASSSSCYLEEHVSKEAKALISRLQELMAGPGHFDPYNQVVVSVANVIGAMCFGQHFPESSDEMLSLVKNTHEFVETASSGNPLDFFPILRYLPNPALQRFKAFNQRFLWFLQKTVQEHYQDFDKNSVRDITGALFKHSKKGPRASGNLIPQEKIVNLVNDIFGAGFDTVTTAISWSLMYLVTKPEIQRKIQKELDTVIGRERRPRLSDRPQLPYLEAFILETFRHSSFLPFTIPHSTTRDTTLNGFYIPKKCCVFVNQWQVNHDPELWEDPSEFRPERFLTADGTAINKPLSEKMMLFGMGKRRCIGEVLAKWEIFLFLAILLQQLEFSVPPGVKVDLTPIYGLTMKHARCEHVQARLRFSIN
Experiment: not given
Conditions: not given

SMILES | AC50
C[C@@H](CC(=O)O)[C@@H](N)C(=O)O | 31.6 µM (inconclusive)
Cc1cc(NC(=O)c2c([N+](=O)[O-])c(C)nn2C)no1 | 39.8 µM (inconclusive)
CCOC(=O)Nc1ccc(C(=O)NCC2CCCO2)cc1 (stereo not given) | 39.8 µM (inconclusive)
C=CCn1c(Cc2c[nH]c3ccccc23)nnc1SCC(=O)NCc1ccccc1 | 12.6 µM (inconclusive)
C(=C/c1ccccc1)/CN1CCN(CCOC(c2ccccc2)c2ccccc2)CC1 | 20 µM (inconclusive)
Cc1nn(C(C)C(=O)Nc2ccc(Cl)cn2)c(C)c1[N+](=O)[O-] (stereo not given) | 12.6 µM (inconclusive)
N#Cc1ccc(CN2CC[C@@]3(CCCN(C(=O)Oc4ccccc4)C3)C2)cc1 | 12.6 µM (inconclusive)
O=[N+]([O-])c1cc(O)c(O)c([N+](=O)[O-])c1 [3,5-DINITROCATECHOL (OR-486)] | 39.8 µM (inconclusive)

Tested on: not listed separately
Experiment: cells
Assay type: functional
Conditions: not given

SMILES | IC50
CCOC(=O)COc1ccc2c3c(c(=O)oc2c1C)CCC3 | > 50 µM (active)
CCOCCOC(=O)COc1ccc2c(-c3ccccc3)cc(=O)oc2c1 | 1.77 µM (active)
CCOC(=O)CCNC(=O)c1ccc2nc(C3CCCCC3)oc2c1 | 23.8 µM (active)
O=C(OCc1ccc([N+](=O)[O-])cc1)c1cc2ccccc2oc1=O | 23.2 µM (active)
Cc1csc(NC(=O)c2cc([N+](=O)[O-])cc([N+](=O)[O-])c2)n1 | 13.2 µM (active)
CCOC(=O)Cn1cc(C#N)c2cccc(CC)c21 | 4.78 µM (active)
CCc1nnc(N/N=C/c2ccc(N3CCC(C)CC3)c([N+](=O)[O-])c2)n1N | 20 µM (active)
CC1C/C(=N/NC(=O)c2cccc(F)c2)c2ccc(O)cc2C1 (stereo not given) | 34.6 µM (active)

Tested on: not listed separately
Experiment: inhibitors of SNCA 5'UTR-driven reporter translation, confirmation, H4 neuroglioma cells, luminescence (AID 1988)
Assay type: functional, cell-based
Conditions: not given

SMILES | EC50
Cc1ccc(OCC(=O)N/N=C/c2cn(Cc3ccccc3)c3ccccc23)cc1 | 5.86 µM (active)

Target: Cytochrome P450 2C19 (Homo sapiens, UniProt P33261)
Sequence (P33261 whole entry): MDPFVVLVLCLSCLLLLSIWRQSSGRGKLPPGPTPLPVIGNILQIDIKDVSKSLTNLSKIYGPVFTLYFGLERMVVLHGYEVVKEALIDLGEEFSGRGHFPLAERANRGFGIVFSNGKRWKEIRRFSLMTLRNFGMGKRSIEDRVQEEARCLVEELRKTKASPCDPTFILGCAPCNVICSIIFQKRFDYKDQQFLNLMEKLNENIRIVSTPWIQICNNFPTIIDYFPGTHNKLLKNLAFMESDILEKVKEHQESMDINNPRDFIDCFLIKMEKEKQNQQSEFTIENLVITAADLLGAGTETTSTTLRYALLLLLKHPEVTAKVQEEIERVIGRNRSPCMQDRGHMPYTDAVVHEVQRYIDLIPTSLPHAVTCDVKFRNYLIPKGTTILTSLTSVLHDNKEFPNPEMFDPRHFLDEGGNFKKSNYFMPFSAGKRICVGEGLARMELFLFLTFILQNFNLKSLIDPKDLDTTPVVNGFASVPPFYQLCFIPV
Experiment: Cytochrome panel assay with activity outcomes. Panel member name: p450-cyp2c19 Compounds with AC50 equal or less than 10 uM are considered active
Assay type: functional
Conditions: not given

SMILES | AC50
Cc1cc(NC(=O)c2c([N+](=O)[O-])c(C)nn2C)no1 | inconclusive

Same assay, conditions: read-out: AC50

SMILES | AC50
O=C(c1csnn1)N1CCC2(CC1)CN(c1ccccc1)C2 | 39.8 µM (inconclusive)
CN(C)C(=O)c1ccc(-c2nccc(N(C)Cc3ccco3)n2)cc1 | 25.1 µM (inconclusive)

Tested on: not listed separately
Experiment: Luminescence Cell-Based Dose Retest to Confirm Inhibitors of Cancer Stem Cells. [Related pubchem assays (depositor defined):AID2717, AID2721]
Assay type: functional
Conditions: Homo sapiens

SMILES | AC50
Fc1cccc(-n2c(-c3cccs3)nc3nc4ccccc4nc32)c1 | 1.69 µM (active)
CC(C)(C)OC(=O)[C@H](Cc1ccccc1)NC(=O)c1[nH]cnc1C(=O)Nc1cccc(Cl)c1 | 3.36 µM (active)
COc1c(OC(C)=O)ccc(/C=C/c2ccc3cccc(OCc4ccccc4)c3n2)c1[N+](=O)[O-] | 1.67 µM (active)
CCOC(=O)C1CCN(c2ncnc3c2c(-c2ccccc2)cn3-c2ccccc2)CC1 | 3.11 µM (active)
CC(=O)c1ccc(-c2ccc([C@H]3[C@@H]4C=CCC[C@@]4(C)C(=O)N3Cc3ccccc3)c(F)c2)cc1 | 4.4 µM (active)
CCOC(=O)c1c(NC(NC(=O)C(C)C)C(Cl)(Cl)Cl)sc2c1CCC2 (stereo not given) | 3.39 µM (active)
COc1ccc(C(=O)Nc2cccc(/C=C/c3nc(O)c4ccccc4n3)c2)cc1 | 3.7 µM (active)
COc1ccc(N(CC(=O)Nc2cc(C)ccc2C)S(=O)(=O)c2c(C)noc2C)cc1 | 34.5 µM (active)
O=C(Nc1ccc(Nc2ccccc2)cc1)c1ccccc1 | 13.7 µM (active)

Target: FAD-linked sulfhydryl oxidase ALR (Homo sapiens, UniProt P55789)
Sequence (P55789 whole entry): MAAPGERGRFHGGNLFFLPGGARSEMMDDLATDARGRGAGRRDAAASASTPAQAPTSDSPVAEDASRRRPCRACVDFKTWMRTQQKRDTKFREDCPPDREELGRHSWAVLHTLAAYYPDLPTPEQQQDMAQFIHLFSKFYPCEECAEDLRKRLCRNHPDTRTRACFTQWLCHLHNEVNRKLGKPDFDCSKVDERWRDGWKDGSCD
Experiment: inhibitors of human ALR sulfhydryl oxidase, dose response, biochemical, H2O2 detection, luminescence, cherry-pick (AID 493248)
Conditions: not given

SMILES | AC50
Nc1n[nH]c(N2CCN(c3cccc(Cl)c3)CC2)n1 | 1.25 µM (active)
N#Cc1ccsc1NC(=O)CN1CCN(c2ccccc2O)CC1 | 1.46 µM (active)
Cc1ccc(Nc2c(-c3ccccc3O)nc3cnccn23)cc1 | 0.705 µM (active)
Cc1c(C)c(C)c(C(=O)c2ccc(NC(=O)c3ccccc3C(=O)O)cc2)c(C)c1C | 5.32 µM (active)
Cc1ccc(NNC(=O)c2ccno2)c(C)c1 | 3.48 µM (active)
CC1CCCCN1c1ccc(N)cc1C(N)=O (stereo not given) | 11.1 µM (active)
Cc1cc(C)nc(NNC(=O)c2ccccc2O)n1 | 5.66 µM (active)
CC(=O)N1CCN=C1SCc1cccc(C(F)(F)F)c1 | 7.34 µM (active)
Cc1ccc(Sc2ccc(S(=O)(=O)Nc3ccc(C(=O)O)cc3)cc2)cc1C | 20.7 µM (active)
O=C(c1cc2ccccc2o1)N1CCN=C1SCc1cccnc1 | 0.095 µM (active)
COc1ccc(/C=N/Nc2ccccn2)c(OC)c1OC | 0.484 µM (active)
C/C(=N\NC(=O)c1cccc(N2CCCC2=O)c1)c1ccc(N)cc1 | 1.61 µM (active)

Tested on: Streptococcus
Experiment: Group A Streptococcus viability loss, dose response, counter-screen for streptokinase expression inhibitor project, luminescence, BacTiterGlo (AID 1915);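 also: potency for reduction of bacterial viability or growth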
Assay type: functional, organism-based
Conditions: not given

SMILES | EC50
CC(C)(C)OC(=O)[C@H](Cc1ccccc1)NC(=O)c1[nH]cnc1C(=O)Nc1cccc(Cl)c1 | 21.7 µM (active)

Source: ChEMBL document CHEMBL1201862, “PubChem BioAssay data set” (2004)
